The results in this text go back to PubChem BioAssay AID179 (DTP/NCI, 2004).

Usually EC50 stands for the concentration needed to bring the measured effect to its halfway point. Broadly, the IC50 is the point on the concentration scale where inhibition reaches its midpoint.

Calls of active or inactive are those of the source.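 How the source made its calls: active means compounds giving half or more protection of infected cells from virus-caused growth loss, again on retest; inactive means the rest.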 Where a SMILES comes first, the peptide text is derived from it. [ ]: non-standard residue; d: D form. The star is where a group is joined. Tyr(3-Br) = N[C@@H](Cc1ccc(O)c(Br)c1)C(=O)O; Boc = CC(C)(C)OC(=O)*

The experiment deals with CEM cells HIV-1 protection, formazan growth assay. As to the kind of experiment: NCI AIDS Antiviral Assay. The following applies: for IC50: measured here: growth of uninfected CEM cells. A digest of the protocol: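 Soluble formazan readout of cell growth; CEM cells ± HIV-1; 5 drug concs. ≥50% protection → retest; ≥50% again = moderately active; reproducible 100% = confirmed active.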

Regarding `COC(=O)[C@H](Cc1ccc(O)c(Br)c1)NC(=O)[C@H](Cc1ccc(O)cc1)NC(=O)OC(C)(C)C` (Boc-Tyr-[Tyr(3-Br)]-OMe), the EC50 is more than 200 µM and the concentration for half-maximal inhibition (IC50) was determined as 34.7 µM.

Turning to `CCc1cccc(C(C)(C)C)c1NC(=S)NC=C(C#N)C#N`, the EC50 was more than 200 µM and the IC50 is 145 µM.

As for `Cc1ccc(S(=O)(=O)NN=C2CCCCCCCCCCC2)cc1`, the EC50 is more than 200 µM and the IC50 is more than 200 µM.

Regarding `O=C1C(Cl)C(c2ccccc2Cl)N1n1cnc2ccccc2c1=O` (centres undefined), the EC50 is more than 14.5 µM and the IC50 was more than 14.5 µM.

Regarding `C=C(C[N+](C)(C)C)N/N=C/c1oc(-c2ccc(OC)c(OC)c2)c(-c2ccc(OC)c(OC)c2)c1[N+](=O)[O-]`, the EC50 is more than 12.9 µM and the IC50 is more than 12.9 µM.

In the case of `CCCCS(=O)CCC(N)P(=O)(O)O` (centres undefined), the EC50 is more than 200 µM and the IC50 was more than 200 µM.

As for `CCOC(=O)c1noc(Oc2ccc(Cl)cc2Cl)n1`, the EC50 was more than 44.7 µM and the IC50 was 25.1 µM.

`COCCn1cnc2c(Cl)nc(Nc3ccccc3)nc21`: the EC50 was more than 200 µM and the IC50 amounted to 28.8 µM.

As to `CC(C)(C)[Si](C)(C)OCC1OC(n2cnc3c(=O)[nH]c(NCc4ccccc4)nc32)C(O[Si](C)(C)C(C)(C)C)C1O[Si](C)(C)C(C)(C)C` (centres undefined), the EC50 is more than 200 µM and the IC50 turned out to be 141 µM.

On to `CC(=S)N=Cc1c(O)[nH]c(=O)[nH]c1=O`, for which the EC50 was more than 200 µM and the 50% inhibitory concentration (IC50) was more than 200 µM.

For the molecule `O=C(c1ccc(Cl)cc1)c1ccc(N=[N+]([O-])c2ccc(C(=O)c3ccc(Cl)cc3)cc2)cc1`, the EC50 was more than 100 µM and the IC50 was more than 100 µM.

On to `Cc1cc2c(C)n(Cc3ccc(Cl)cc3Cl)nc2c(C#N)c1C`, for which the EC50 was more than 20.9 µM and the IC50 was more than 20.9 µM.

Turning to `CCOc1ccc(C2=C(Cl)c3cc(OC)c(OC)cc3C2Cl)cc1` (centres undefined), the outcome was inactive.

Consider `O=C1C(S)=[N+](O)c2ccccc2[N+]1=O`, for which the EC50 is more than 200 µM and the 50% inhibitory concentration (IC50) was more than 200 µM.

For the molecule `Nc1nc(Cl)nc2c1ncn2C1CCC(COP(=O)(O)OP(=O)(O)OP(=O)(O)O)O1` (centres undefined), the outcome was active.

Regarding `O=C(CN1CCCCC1)N1CCc2c([nH]c3ccccc23)C1c1cccnc1` (centres undefined), the EC50 was more than 26.9 µM and the IC50 was more than 26.9 µM.

Turning to `CN1C(=O)N(C)C2(CCN(CC(CC3OCCO3)c3ccc(F)cc3)CC2)C1=O` (centres undefined), the EC50 is more than 200 µM and the IC50 was more than 200 µM.

As to `CC(C)(C)N/N=C(\C(=O)Nc1nc(=S)[nH][nH]1)C1C(=O)Nc2ccccc2S1=O` (centres undefined), the outcome was inactive.

Regarding `Cc1cccc(NC(=O)Nc2cccc(Cl)c2Cl)n1`, the EC50 was more than 200 µM and the IC50 was more than 200 µM.

`Cc1cc(C)nc(NS(=O)(=O)c2ccc(NC(=O)c3cccc4c(N)c5ccccc5nc34)cc2)n1`: the EC50 is more than 44.7 µM and the IC50 is more than 44.7 µM.

As to `Cn1cnc([N+](=O)[O-])c1Sc1nccn1-c1cccc2ccccc12`, the EC50 is more than 102 µM and the IC50 worked out at 13.2 µM.

On to `O=c1n(-c2ccccc2)c(=O)n2n1C1C3C4C5C1C5C2C43` (centres undefined), for which the EC50 was more than 200 µM and the IC50 is more than 200 µM.

For `Cc1ccc2c(c1C)C(=O)C1(C2)Cc2ccc3c(c2C1=O)CCC3` (centres undefined), the EC50 is more than 100 µM and the half-maximal inhibitory concentration (IC50) is more than 100 µM.

In the case of `CC12CCCC(C#N)(C1)OC2=O` (centres undefined), the result was inactive.

`CCOC(=O)NC(NC(=O)OCC)C(NC(=O)OCC)NC(=O)OCC`: the EC50 was more than 200 µM and the IC50 was more than 200 µM.

Turning to `CC(C)=C1C(=O)N(c2ccccc2)N(c2ccccc2)C1=O`, the EC50 is more than 200 µM and the concentration for half-maximal inhibition (IC50) came out at 79.4 µM.

For `CC(C)CC1=C(C(=O)c2ccoc2)CC(C)C1` (centres undefined), the EC50 was more than 200 µM and the concentration for half-maximal inhibition (IC50) was more than 200 µM.

For the molecule `CCOC(=O)/C(=C/c1ccc(C)cc1)P(=O)(OCC)OCC`, the concentration for a half-maximal effect (EC50) is 562 µM and the half-maximal inhibitory concentration (IC50) is 631 µM.

On to `CCCCCCCCCCCCCCCCCC1=Nc2cc(C)c(C)cc2NC(=O)C1`, for which the EC50 was more than 100 µM and the 50% inhibitory concentration (IC50) is more than 100 µM.

Take `CCOC(=O)C=C1CCC2(CC1)OCCO2`: the EC50 was more than 251 µM and the IC50 was more than 251 µM.

On to `Cc1cc(N(CCC#N)CCC#N)ccc1/C=C1N=C(/C=C/c2ccccc2)N(c2ccc(S(N)(=O)=O)cc2)C\1=O`, for which the outcome was inactive.

In the case of `CC(C)=C/C(CC(O)(C(F)(F)F)C(F)(F)F)=N\O`, the EC50 is more than 200 µM and the concentration for half-maximal inhibition (IC50) was more than 200 µM.

Consider `N#C/C(=C\c1cc(F)cc(F)c1)c1ccccn1`, for which the EC50 was more than 200 µM and the concentration for half-maximal inhibition (IC50) is 26.3 µM.

Consider `N#CCCN(C1=NN(C(=O)CC(=O)Nc2ccccc2Cl)C(c2ccccc2)C1)c1ccc(Cl)cc1` (centres undefined), for which the EC50 is more than 3.89 µM and the concentration for half-maximal inhibition (IC50) was more than 3.89 µM.

Consider `c1ccc(-c2cn3nc4ccccc4c3nn2)cc1`, for which the EC50 was more than 200 µM and the half-inhibitory concentration (IC50) was more than 200 µM.

As to `C=CCN1c2ccccc2Sc2cnccc21`, the EC50 is more than 191 µM and the 50% inhibitory concentration (IC50) was found to be 33.1 µM.

In the case of `Cc1cc(O)c2c(c1)C[C@@H](O)C1=C2C(=O)c2c(O)ccc(OC3CC(O)C(OC4CC(OC5CCC(OC6CC(O)C(OC7CC(OC8CCC(O)C(C)O8)C(O)C(C)O7)C(C)O6)C(C)O5)C(O)C(C)O4)C(C)O3)c2C1=O` (some centres undefined), the EC50 was more than 43.7 µM and the half-inhibitory concentration (IC50) was found to be 0.2 µM.

For `CCOC(=O)C1=C(c2ccccc2)N(C(C)=O)Cc2ccccc21`, the EC50 is more than 50.1 µM and the IC50 stood at 28.2 µM.

For the molecule `NC(=O)c1cc2ccccc2[n+](Cc2ccc(F)cc2)c1`, the EC50 is 200 µM and the IC50 worked out at 339 µM.

Regarding `CNC1C(O)C(OC2C(N)CC(N)C(OC3OC(CN)=CCC3N)C2O)OCC1(C)O` (centres undefined), the result was inactive.

For the molecule `CCCCCOB(OCCCCC)OCCCCC`, the outcome was inactive.

For `COc1cccc(N(CN2C(=O)CCC2C(=O)O)C(C)=O)c1` (centres undefined), the outcome was inactive.

For the molecule `O=C(O)C1OC(Oc2ccc3oc4ccccc4c(=O)c3c2)C(O)C(O)C1O` (centres undefined), the EC50 is more than 174 µM and the IC50 amounted to 145 µM.

Take `CC(C)=CCC/C(C)=C/CC/C(C)=C/C1CCC(=O)C1(C)C` (centres undefined): the EC50 is more than 85.1 µM and the concentration for half-maximal inhibition (IC50) is 41.7 µM.

On to `COc1cc(CC(=O)O)c(C(=O)c2ccc(C#N)cc2)cc1OC`, for which the EC50 was more than 200 µM and the half-inhibitory concentration (IC50) was more than 200 µM.

For the molecule `O=C(OCCNC(=O)N1CC1)OCCNC(=O)N1CC1`, the EC50 is more than 200 µM and the IC50 was more than 200 µM.

As for `N#Cc1sc2nc3c(c(-c4ccccc4)c2c1N)CCCC3`, the result was inactive.

Take `COc1ccc2c(c1)CCC1=CC3(CCC12C)SCCS3` (centres undefined): the EC50 is more than 58.9 µM and the concentration for half-maximal inhibition (IC50) is 10.2 µM.

With `O=C(O)COCC(=O)N(CCOCCN(Cc1ccccc1)C(=O)COCC(=O)O)Cc1ccccc1`, the EC50 is more than 200 µM and the 50% inhibitory concentration (IC50) is more than 200 µM.

In the case of `CCOC(=O)Nn1c(C)nnc1CC#N`, the EC50 is more than 200 µM and the half-maximal inhibitory concentration (IC50) is more than 200 µM.

Consider `COc1ccc(C2SC(C)C(=O)N2c2nc(-c3nc(-c4ccc(Cl)cc4)cs3)cs2)cc1` (centres undefined), for which the EC50 is more than 200 µM and the IC50 was more than 100 µM.

`CN1c2c(C(=O)Nc3nccs3)nn(-c3ccccc3)c2-c2ccccc2S1(=O)=O`: the EC50 was more than 22.9 µM and the IC50 was more than 22.9 µM.

For the molecule `c1ccc(SSc2ccccn2)nc1`, the EC50 is more than 200 µM and the half-inhibitory concentration (IC50) was found to be 5.13 µM.

As for `O=C1/C(=C/c2ccccc2Cl)COc2ccccc21`, the EC50 was more than 19.1 µM and the IC50 is 11.2 µM.

In the case of `COC(=O)C1(C(=O)OC)N=C(C)OC1/C=C/c1ccccc1` (centres undefined), the EC50 is more than 200 µM and the concentration for half-maximal inhibition (IC50) was more than 100 µM.

Take `COc1ccc(C(=O)CC(c2ccc(OC)c(OC)c2)c2c(O)c3ccccc3oc2=O)cc1OC` (centres undefined): the EC50 was more than 200 µM and the half-maximal inhibitory concentration (IC50) amounted to 117 µM.

Take `O=[N+]([O-])c1ccccc1Oc1ccccc1`: the EC50 is 55 µM and the IC50 worked out at 87.1 µM.

Regarding `COc1ccc(/C=C(\C2=NC(=O)CS2)c2nc3ccccc3[nH]2)cc1`, the EC50 is more than 20.9 µM and the half-maximal inhibitory concentration (IC50) was more than 20.9 µM.

Regarding `O=C(Nc1nc2ncn(CCO)c2c(=O)[nH]1)c1ccccc1`, the EC50 was more than 832 µM and the half-maximal inhibitory concentration (IC50) is more than 832 µM.

With `O=c1[nH]c2nc3ccccc3c(=O)n2/c1=C/c1ccccc1`, the EC50 was more than 200 µM and the concentration for half-maximal inhibition (IC50) was determined as 9.12 µM.

Consider `O=[N+]([O-])c1ccc(N2CCOS(=O)OCC2)cc1`, for which the EC50 was more than 200 µM and the half-maximal inhibitory concentration (IC50) was more than 200 µM.

As to `CC(=O)C1=C(O)C(c2ccccc2)c2ccccc21` (centres undefined), the EC50 was more than 389 µM and the IC50 stood at 97.7 µM.

Regarding `Cc1ccccc1S(=O)(=O)Nn1cnc2ccc(S(=O)(=O)Nc3ccc(Cl)cc3)cc2c1=O`, the result was inactive.

`C#CC(C)(C)OCCCCOc1cc(O)c2c(=O)c3ccccc3n(C)c2c1`: the EC50 is more than 3.8 µM and the IC50 is more than 3.8 µM.

Consider `CC(C)c1ccc(/C=C2\CSC/C(=C\c3ccc(C(C)C)cc3)C2=O)cc1`, for which the EC50 was more than 200 µM and the half-maximal inhibitory concentration (IC50) turned out to be 123 µM.

For the molecule `Oc1c(CN2CCCC2)ccc2ccccc12`, the EC50 was more than 200 µM and the half-maximal inhibitory concentration (IC50) was more than 200 µM.

As for `O=C(CCCCCCCCCCc1ccccc1)C1=C(O)C(O)CCC1=O` (centres undefined), the result was inactive.

`CN1CCOC1(C)c1ccccc1` (centres undefined): the EC50 is more than 200 µM and the 50% inhibitory concentration (IC50) is more than 200 µM.

In the case of `CCN1C[C@]2(COC)C(O)CC(OC)C34[C@@H]5C[C@@]6(O)C(O)[C@@H]5[C@](O)(C(O)[C@@H]6OC)[C@@H](C(OC)[C@@H]32)[C@H]14` (some centres undefined), the result was inactive.

For the molecule `CCOc1nc2sc3c(c2c(=O)n1CCSSCCn1c(OCC)nc2sc4c(c2c1=O)CCCC4)CCCC3`, the EC50 was more than 100 µM and the IC50 was more than 100 µM.

For the molecule `C=CCCON(C(=O)OC(C)(C)C)C(C)(C)C`, the EC50 is more than 200 µM and the half-inhibitory concentration (IC50) was more than 200 µM.

As for `O=C1OC2C(O)COC2(O)C1(O)C(C[N+](=O)[O-])c1ccc(Cl)cc1` (centres undefined), the EC50 is more than 200 µM and the IC50 was 17 µM.

On to `CC(C)(C)O/N=C/c1cc(NC(=S)c2ccccc2)ccc1Cl`, for which the concentration giving a half-maximal response (EC50) was 0.135 µM and the IC50 was 10.7 µM.
